The assay has as its system MV-4-11 cells. Nature of the assay: Gene expression microarray analysis (Affymetrix PrimeView) and GSEA. Conditions: ProbeSet 11753055_s_at; LIST B. The assay is classed as cell-based, human. On the set-up: RFU PODN (11730768_x_at) / Fold change /veh PODN (11730768_x_at) / RFU LINC00158 (11744669_a_at) / Fold change /veh LINC00158 (11744669_a_at) / RFU DUSP10 (11751237_a_at) / Fold change /veh DUSP10 (11751237_a_at) / RFU ID3 (11757404_x_at) / Fold change /veh ID3 (11757404_x_at) / RFU PLEKHG5 (11737974_s_at) / Fold change /veh PLEKHG5 (11737974_s_at) / RFU LRRC4B (11730491_at) / Fold change /veh LRRC4B (11730491_at) / RFU GIMAP4 (11747438_a_at) / Fold change /veh GIMAP4 (11747438_a_at) / RFU KRT8 (11758183_x_at) / Fold change /veh KRT8 (11758183_x_at) / RFU CNN1 (11734310_a_at) / Fold change /veh CNN1 (11734310_a_at) / RFU VPS37D (11726825_at) / Fold change /veh VPS37D (11726825_at) / RFU C10orf10 (11716522_x_at) / Fold change /veh C10orf10 (11716522_x_at) / RFU KIR2DL2 /// KIR2DL4 /// KIR2DL5A /// KIR2DL5B /// KIR2DS1 /// KIR2DS2 /// KIR2DS3 /// KIR2DS4 /// KIR3DL3 /// KIR3DL3 /// KIR3DS1 (11738374_at) / Fold change /veh KIR2DL2 /// KIR2DL4 /// KIR2DL5A /// KIR2DL5B /// KIR2DS1 /// KIR2DS2 /// KIR2DS3 /// KIR2DS4 /// KIR3DL3 /// KIR3DL3 /// KIR3DS1 (11738374_at) / RFU C1QL1 (11718748_at) / Fold change /veh C1QL1 (11718748_at) / RFU TMPRSS4 (11747572_a_at) / Fold change /veh TMPRSS4 (11747572_a_at) / RFU HAMP (11756126_x_at) / Fold change /veh HAMP (11756126_x_at) / RFU RNFT2 (11725882_a_at) / Fold change /veh RNFT2 (11725882_a_at) / RFU NR4A2 (11747474_a_at) / Fold change /veh NR4A2 (11747474_a_at) / RFU ABCC12 (11746883_a_at) / Fold change /veh ABCC12 (11746883_a_at) / RFU TMEM136 (11760407_x_at) / Fold change /veh TMEM136 (11760407_x_at) / RFU CLDN22 /// WWC2 (11732394_at) / Fold change /veh CLDN22 /// WWC2 (11732394_at) / RFU HLA-DPB1 (11760878_x_at) / Fold change /veh HLA-DPB1 (11760878_x_at) / RFU SPINT1 (11716480_a_at) / Fold change /veh SPINT1 (11716480_a_at) / RFU GAP43 (11754022_s_at) / Fold change /veh GAP43 (11754022_s_at) / RFU A4GNT (11735810_at) / Fold change /veh A4GNT (11735810_at) / RFU PRB3 (11715151_x_at) / Fold change /veh PRB3 (11715151_x_at) / RFU TUBB4B (11761932_at) / Fold change /veh TUBB4B (11761932_at) / RFU CAPN14 (11732068_a_at) / Fold change /veh CAPN14 (11732068_a_at) / RFU TMCC2 (11721928_a_at) / Fold change /veh TMCC2 (11721928_a_at) / RFU IRGQ (11745062_a_at) / Fold change /veh IRGQ (11745062_a_at) / RFU FAM174B (11720279_a_at) / Fold change /veh FAM174B (11720279_a_at) / RFU TMPRSS4 (11748680_a_at) / Fold change /veh TMPRSS4 (11748680_a_at) / RFU FAM212B (11763350_a_at) / Fold change /veh FAM212B (11763350_a_at) / RFU PLEKHG5 (11743358_a_at) / Fold change /veh PLEKHG5 (11743358_a_at) / RFU ZSCAN30 (11745921_a_at) / Fold change /veh ZSCAN30 (11745921_a_at) / RFU CMKLR1 (11741424_a_at) / Fold change /veh CMKLR1 (11741424_a_at) / RFU LOC101060620 /// MAPK8IP1 (11723275_at) / Fold change /veh LOC101060620 /// MAPK8IP1 (11723275_at) / RFU SPTSSB (11747773_x_at) / Fold change /veh SPTSSB (11747773_x_at) / RFU PRSS12 (11739890_at) / Fold change /veh PRSS12 (11739890_at) / RFU BIN1 (11741810_x_at) / Fold change /veh BIN1 (11741810_x_at) / RFU WNT11 (11732464_a_at) / Fold change /veh WNT11 (11732464_a_at) / RFU C10orf10 (11716521_a_at) / Fold change /veh C10orf10 (11716521_a_at) / RFU C5orf56 (11738089_at) / Fold change /veh C5orf56 (11738089_at) / RFU CYB561 (11721691_x_at) / Fold change /veh CYB561 (11721691_x_at) / RFU ANKRD19P (11752326_a_at) / Fold change /veh ANKRD19P (11752326_a_at) / RFU OR2T12 /// OR2T33 /// OR2T8 (11738714_s_at) / Fold change /veh OR2T12 /// OR2T33 /// OR2T8 (11738714_s_at) / RFU VCAN (11748164_a_at) / Fold change /veh VCAN (11748164_a_at) / RFU JSRP1 (11732532_at) / Fold change /veh JSRP1 (11732532_at) / RFU KRTAP10-11 (11738290_x_at) / Fold change /veh KRTAP10-11 (11738290_x_at) / RFU MYO3A (11730013_a_at) / Fold change /veh MYO3A (11730013_a_at) / RFU EBF3 (11725865_a_at) / Fold change /veh EBF3 (11725865_a_at) / RFU CAMK2N1 (11719241_x_at) / Fold change /veh CAMK2N1 (11719241_x_at) / RFU C5orf56 (11738088_a_at) / Fold change /veh C5orf56 (11738088_a_at) / RFU OLFML3 (11715873_a_at) / Fold change /veh OLFML3 (11715873_a_at) / RFU LOC100653217 /// NTM (11731650_a_at) / Fold change /veh LOC100653217 /// NTM (11731650_a_at) / RFU MAPK11 (11762145_a_at) / Fold change /veh MAPK11 (11762145_a_at) / RFU FIZ1 (11724087_x_at) / Fold change /veh FIZ1 (11724087_x_at) / RFU OASL (11726364_x_at) / Fold change /veh OASL (11726364_x_at) / RFU SOX15 (11748057_x_at) / Fold change /veh SOX15 (11748057_x_at) / RFU CD79A (11719716_a_at) / Fold change /veh CD79A (11719716_a_at) / RFU HIST1H1D (11736915_at) / Fold change /veh HIST1H1D (11736915_at) / RFU CASKIN2 (11723855_a_at) / Fold change /veh CASKIN2 (11723855_a_at) / RFU LOC730098 (11760151_x_at) / Fold change /veh LOC730098 (11760151_x_at) / RFU OR4N2 (11742367_at) / Fold change /veh OR4N2 (11742367_at) / RFU PRRT2 (11749266_a_at) / Fold change /veh PRRT2 (11749266_a_at) / RFU SNX32 (11753110_a_at) / Fold change /veh SNX32 (11753110_a_at) / RFU CDHR5 (11726645_a_at) / Fold change /veh CDHR5 (11726645_a_at) / RFU RCAN1 (11760418_a_at) / Fold change /veh RCAN1 (11760418_a_at) / RFU FAM167A (11723789_a_at) / Fold change /veh FAM167A (11723789_a_at) / RFU FAM26E (11764081_at) / Fold change /veh FAM26E (11764081_at) / RFU ISYNA1 (11749810_s_at) / Fold change /veh ISYNA1 (11749810_s_at) / RFU ACY1 (11761880_at) / Fold change /veh ACY1 (11761880_at) / RFU 11764098_at / Fold change /veh 11764098_at / RFU SAMD14 (11745864_x_at) / Fold change /veh SAMD14 (11745864_x_at) / RFU NPB (11741838_a_at) / Fold change /veh NPB (11741838_a_at) / RFU TMPRSS6 (11731388_a_at) / Fold change /veh TMPRSS6 (11731388_a_at) / RFU KRTAP10-2 (11738614_at) / Fold change /veh KRTAP10-2 (11738614_at) / RFU ARHGAP8 /// PRR5-ARHGAP8 (11727945_x_at) / Fold change /veh ARHGAP8 /// PRR5-ARHGAP8 (11727945_x_at) / RFU KRTAP5-7 /// NADSYN1 (11734609_at) / Fold change /veh KRTAP5-7 /// NADSYN1 (11734609_at) / RFU RASL12 (11751679_a_at) / Fold change /veh RASL12 (11751679_a_at) / RFU CDKN2B (11736163_a_at) / Fold change /veh CDKN2B (11736163_a_at) / RFU PRF1 (11729649_at) / Fold change /veh PRF1 (11729649_at) / RFU, ZNF638 /// ZNF638-IT1 / Fold change vs veh, ZNF638 /// ZNF638-IT1 / RFU, PANK3 / Fold change vs veh, PANK3 / RFU, SH3YL1 / Fold change vs veh, SH3YL1 / RFU, ZEB2 / Fold change vs veh, ZEB2 / RFU, NRIP1 / Fold change vs veh, NRIP1 / RFU, PTTG1IP / Fold change vs veh, PTTG1IP / RFU, CAPN2 / Fold change vs veh, CAPN2 / RFU, MED14 / Fold change vs veh, MED14 / RFU, SNORA58 / Fold change vs veh, SNORA58 / RFU, C1orf63 / Fold change vs veh, C1orf63 / RFU, LRRFIP1 / Fold change vs veh, LRRFIP1 / RFU, NDUFAF7 / Fold change vs veh, NDUFAF7 / RFU, SLC12A2 / Fold change vs veh, SLC12A2 / RFU, IBTK / Fold change vs veh, IBTK / RFU, ESF1 / Fold change vs veh, ESF1 / Fold change vs veh, TMEM50B / RFU, TAOK1 / Fold change vs veh, TAOK1 / RFU, ACBD3 / Fold change vs veh, ACBD3 / RFU, TMA16 / Fold change vs veh, TMA16 / RFU, RWDD3 / Fold change vs veh, RWDD3 / RFU, BCAT1 / Fold change vs veh, BCAT1 / RFU, EDEM3 / Fold change vs veh, EDEM3 / RFU, TMEM33 / Fold change vs veh, TMEM33 / RFU, WDR75 / Fold change vs veh, WDR75 / RFU, AHCTF1 / Fold change vs veh, AHCTF1 / RFU, TFRC / Fold change vs veh, TFRC / RFU, ZDHHC17 / Fold change vs veh, ZDHHC17 / RFU, NOM1 / Fold change vs veh, NOM1 / RFU, ARL8B / Fold change vs veh, ARL8B / RFU, ZBTB11 / Fold change vs veh, ZBTB11 / RFU, TAMM41 / Fold change vs veh, TAMM41 / RFU, KIAA1704 /// LOC100996395 / Fold change vs veh, KIAA1704 /// LOC100996395 / RFU, ING1 / Fold change vs veh, ING1 / RFU, TRMT61B / Fold change vs veh, TRMT61B / RFU, FUBP3 / Fold change vs veh, FUBP3 / RFU, TP53 / Fold change vs veh, TP53 / RFU, TNKS2 / Fold change vs veh, TNKS2 / RFU, ZFP14 / Fold change vs veh, ZFP14 / RFU, ACTR2 / Fold change vs veh, ACTR2 / RFU, PPP3R1 / Fold change vs veh, PPP3R1 / RFU, PIK3R1 / Fold change vs veh, PIK3R1 / RFU, HNRNPA1 / Fold change vs veh, HNRNPA1 / RFU, RNF170 / Fold change vs veh, RNF170 / RFU, ZNF28 / Fold change vs veh, ZNF28 / RFU, RNGTT / Fold change vs veh, RNGTT / RFU, OGT / Fold change vs veh, OGT / RFU, BRD1 / Fold change vs veh, BRD1 / RFU, MARS / Fold change vs veh, MARS / RFU, ZNF655 / Fold change vs veh, ZNF655 / RFU, FAHD1 / Fold change vs veh, FAHD1 / RFU, BDP1 / Fold change vs veh, BDP1 / RFU, LRRCC1 / Fold change vs veh, LRRCC1 / RFU, ARID1A / Fold change vs veh, ARID1A / RFU, ZNF146 / Fold change vs veh, ZNF146 / RFU, ZNF330 / Fold change vs veh, ZNF330 / RFU, GPN3 / Fold change vs veh, GPN3 / RFU, C9orf123 / Fold change vs veh, C9orf123 / RFU, N4BP2L2 / Fold change vs veh, N4BP2L2 / RFU, ARFIP1 / Fold change vs veh, ARFIP1 / RFU, FAM179B / Fold change vs veh, FAM179B / RFU, BCL10 / Fold change vs veh, BCL10 / RFU, UHRF1BP1L / Fold change vs veh, UHRF1BP1L / RFU, BET1 / Fold change vs veh, BET1 / RFU, CNOT2 / Fold change vs veh, CNOT2 / RFU, ZNF268 / Fold change vs veh, ZNF268 / Fold change vs veh, ZNF507 / RFU, DGCR2 / Fold change vs veh, DGCR2 / RFU, WDSUB1 / Fold change vs veh, WDSUB1 / Fold change vs veh, HSP90B1 /// MIR3652 / RFU, ADSS / Fold change vs veh, ADSS / RFU, GK / Fold change vs veh, GK / RFU, ZNF148 / Fold change vs veh, ZNF148 / RFU, TAF9 / Fold change vs veh, TAF9 / RFU, SLC1A5 / Fold change vs veh, SLC1A5 / RFU, SLMO2 / Fold change vs veh, SLMO2 / RFU, ABCC4 / Fold change vs veh, ABCC4 / RFU, LOC101060439 /// RAP1B / Fold change vs veh, LOC101060439 /// RAP1B / RFU, RFX7 / Fold change vs veh, RFX7 / RFU, GTPBP10 / Fold change vs veh, GTPBP10 / RFU, CNEP1R1 / Fold change vs veh, CNEP1R1 / RFU, BIVM-ERCC5 /// ERCC5 / Fold change vs veh, BIVM-ERCC5 /// ERCC5 / RFU, ILF3 / Fold change vs veh, ILF3 / RFU 11762660_at / Fold change /veh 11762660_at / RFU VCAN (11757783_s_at) / Fold change /veh VCAN (11757783_s_at) / RFU DDX43 (11728927_at) / Fold change /veh DDX43 (11728927_at) / RFU KRT8 (11758188_x_at) / Fold change /veh KRT8 (11758188_x_at) / RFU NKD1 (11759106_at) / Fold change /veh NKD1 (11759106_at) / RFU SRD5A1 (11742802_a_at) / Fold change /veh SRD5A1 (11742802_a_at) / RFU TPSAB1 /// TPSB2 (11721975_s_at) / Fold change /veh TPSAB1 /// TPSB2 (11721975_s_at) / RFU GSTM3 (11746129_a_at) / Fold change /veh GSTM3 (11746129_a_at) / RFU IL23R (11737362_x_at) / Fold change /veh IL23R (11737362_x_at) / RFU TMEM51 (11727254_a_at) / Fold change /veh TMEM51 (11727254_a_at) / RFU PIWIL2 (11732686_x_at) / Fold change /veh PIWIL2 (11732686_x_at) / RFU ORM1 (11744905_x_at) / Fold change /veh ORM1 (11744905_x_at) / RFU CCDC152 (11743942_at) / Fold change /veh CCDC152 (11743942_at) / RFU ECM1 (11717891_a_at) / Fold change /veh ECM1 (11717891_a_at) / RFU IL23R (11748794_a_at) / Fold change /veh IL23R (11748794_a_at) / RFU TNFAIP8L3 (11732012_x_at) / Fold change /veh TNFAIP8L3 (11732012_x_at) / RFU MBOAT4 (11741988_at) / Fold change /veh MBOAT4 (11741988_at) / RFU 11764193_at / Fold change /veh 11764193_at / RFU TMEM53 (11763286_at) / Fold change /veh TMEM53 (11763286_at) / RFU MAGEB2 (11727129_at) / Fold change /veh MAGEB2 (11727129_at) / RFU TMEM200A (11744735_a_at) / Fold change /veh TMEM200A (11744735_a_at) / RFU CCDC152 (11751479_a_at) / Fold change /veh CCDC152 (11751479_a_at) / RFU FAM211A (11726209_a_at) / Fold change /veh FAM211A (11726209_a_at) / RFU RGS16 (11746705_a_at) / Fold change /veh RGS16 (11746705_a_at) / RFU VCAN (11755009_s_at) / Fold change /veh VCAN (11755009_s_at) / RFU RHOB (11743442_s_at) / Fold change /veh RHOB (11743442_s_at) / RFU RGS16 (11720943_a_at) / Fold change /veh RGS16 (11720943_a_at) / RFU RGS16 (11720944_at) / Fold change /veh RGS16 (11720944_at) / RFU, VPS4B / Fold change vs veh, VPS4B / RFU, CREB1 / Fold change vs veh, CREB1 / RFU, DNAJC13 / Fold change vs veh, DNAJC13 / RFU, GNAQ / Fold change vs veh, GNAQ / RFU, CDK5R1 / Fold change vs veh, CDK5R1 / RFU, ZRANB3 / Fold change vs veh, ZRANB3 / RFU, CUL4A / Fold change vs veh, CUL4A / RFU, CCNY / Fold change vs veh, CCNY / RFU, UFL1 / Fold change vs veh, UFL1 / RFU, COG3 / Fold change vs veh, COG3 / RFU, DIAPH2 / Fold change vs veh, DIAPH2 / RFU, SKA2 / Fold change vs veh, SKA2 / RFU, AFF3 / Fold change vs veh, AFF3 / RFU, LMF1 / Fold change vs veh, LMF1 / RFU, IPO11 / Fold change vs veh, IPO11 / RFU, DFFB / Fold change vs veh, DFFB / RFU, FOXP1 / Fold change vs veh, FOXP1 / RFU, CARD8 / Fold change vs veh, CARD8 / RFU, STRN3 / Fold change vs veh, STRN3 / RFU, ADK / Fold change vs veh, ADK / RFU, RASSF2 / Fold change vs veh, RASSF2 / RFU, WIPF1 / Fold change vs veh, WIPF1 / RFU, LARP1B / Fold change vs veh, LARP1B / RFU, RASA1 / Fold change vs veh, RASA1 / RFU, RB1 / Fold change vs veh, RB1 / RFU, PPFIA1 / Fold change vs veh, PPFIA1 / RFU, MAT2A / Fold change vs veh, MAT2A / RFU, CCT5 / Fold change vs veh, CCT5 / RFU, WDR92 / Fold change vs veh, WDR92 / RFU, CUX1 / Fold change vs veh, CUX1 / RFU, TTC7A / Fold change vs veh, TTC7A / RFU, TMEM135 / Fold change vs veh, TMEM135 / RFU, DEPTOR / Fold change vs veh, DEPTOR / RFU, CPM / Fold change vs veh, CPM / RFU, DNAJB6 / Fold change vs veh, DNAJB6 / RFU, CACNA2D3 / Fold change vs veh, CACNA2D3 / RFU, DTX4 / Fold change vs veh, DTX4 / RFU, TFCP2 / Fold change vs veh, TFCP2 / RFU, GMCL1 /// GMCL1P1 / Fold change vs veh, GMCL1 /// GMCL1P1 / RFU, AEBP2 / Fold change vs veh, AEBP2 / RFU, SNHG1 /// SNORD22 /// SNORD25 /// SNORD26 /// SNORD27 /// SNORD28 /// SNORD29 /// SNORD31 / Fold change vs veh, SNHG1 /// SNORD22 /// SNORD25 /// SNORD26 /// SNORD27 /// SNORD28 /// SNORD29 /// SNORD31 / Fold change (Aza/veh), C12orf56 (ProbeSet 11735607_a_at) / Fold change (ACY-1035/veh), C12orf56 (ProbeSet 11735607_a_at) / Fold change (Aza/veh), FGFR1OP (ProbeSet 11751329_s_at) / Fold change (ACY-1035/veh), FGFR1OP (ProbeSet 11751329_s_at) / Fold change (Aza/veh), VPS36 (ProbeSet 11739960_a_at) / Fold change (ACY-1035/veh), VPS36 (ProbeSet 11739960_a_at) / RFU SYPL1 (11715823_x_at) / Fold change /veh SYPL1 (11715823_x_at) / RFU IGFBP7 (11715501_s_at) / Fold change /veh IGFBP7 (11715501_s_at) / RFU REEP3 (11722064_at) / Fold change /veh REEP3 (11722064_at) / RFU IGLL1 (11728026_x_at) / Fold change /veh IGLL1 (11728026_x_at): dose or concentration left out as unconfirmed.

These results are taken from publication PMC5218480 (PLoS ONE, 2017).

Take `Nc1ncn([C@@H]2O[C@H](CO)[C@@H](O)[C@H]2O)c(=O)n1` [azacitidine]: the “Fold change vs veh, LOC101060439 /// RAP1B” value turned out to be 0.86.
